Laboratory results taken from patent US5888993A, “Vanadium compounds in the treatment of elevated blood sugar levels” (The University of British Columbia, priority 1997, dated 1999).
Several values for one entry are separate records, joined by “and”; a condition that tells them apart may be missing. Equal entries are not always repeated.

Key:
diabetic rats = experiment: Comparative testing, plasma glucose after oral gavage in STZ diabetic rats; format: in vivo, male wistar rats; settings: oral gavage 1 mmol/kg
Procedure: Diabetes was induced in all animals by a single intravenous injection of streptozotocin (STZ) 60 mg/kg in 0.9% NaCl via the tail vein. Three days after STZ injection, blood was collected from the tail by nicking the tail tip and expressing the blood into heparinized capillary tubes. Blood was centrifuged at 20,000 g for 10 minutes to separate the plasma. Glucose analysis was done immediately on the plasma sample using a Boehringer Mannheim kit. […] One week after STZ injection animals were randomly divided into 3 pairs of rats. Each pair of rats received by oral gavage 1 mmol/kg of BMOV or VO(Sal)2 or VO(acac)2, suspended in 3% acacia.

STZ-diabetic rats = experiment: Comparison of BMOV and ETHYLBMOV, plasma glucose and insulin in STZ-diabetic rats; format: in vivo, rat; settings: 0.6 mmol kg^-1, one oral gavage, 24 hour period
Procedure: Animal studies were conducted in STZ-diabetic rats comparing doses of 0.6 mmol kg^-1 for VO(ma)2 (BMOV) and VO(ema)2 (ETHYLVMOV). FIGS. 8 and 9 respectively show plasma glucose and plasma insulin values recorded over 24 hour periods after one oral gavage of a water solution of either BMOV or ETHYLBMOV, in order to compare their efficacies.

normal rats = experiment: Prolonged administration in drinking water (77 days), normal (control) rats; format: in vivo, rat
Procedure: BMOV was administered to normal and diabetic rats in drinking water.
The study was composed of 4 groups of animals Control (8 animals), Control-Treated (11 animals), Diabetic (11 animals) and Diabetic-Treated (12 animals). The diabetic state was induced by injecting STZ at 60 mg/kg dissolved in 0.9% NaCl I.V. via the tail vein to anaesthetized rats. The two control groups were injected with 0.9% NaCl I.V. through the tail vein. The diabetic state was determined with a "Testape"™ test at 3 days post-injection and later confirmed with a glucometer test. Blood glucose and insulin assays were carried out post-injection over the course of the study. Treatment according to the invention was started 1 week after determination of the diabetic state.
Treated diabetic animals received between 0.3 and 0.5 mmol/kg of the compound/day in drinking water over a 77 day period. Treated control animals received a slightly lower dose (0.2-0.3 mmol/day) over the same period. The concentration of BMOV in the drinking water was varied between 1.6 and 3.2 mM. The reason for the differing doses in the two sets of animals is that the two groups drank different amounts of water daily; it was difficult to attain the same dose in both groups.
1. As indicated above, 4 groups of animals were studied, but the diabetic-treated group was sub-divided to diabetic-treated responders (8 animals) and diabetic-treated non-responders (4 animals). Curve 1 is the control group, curve 2 the control-treated group, curve 3 the diabetic group, curve 4 is the diabetic-treated responders and curve 5 is the diabetic-treated non-responders. […] Treatment began with a […] solution of the compound. […] On day 24, the concentration was increased to 2.37 mM (0.7 mg/ml).

[1] = control treated, week 6, mean ± S.E.M.

Cc1occc(=O)c1[O-].Cc1occc(=O)c1[O-].[O]=[V+2] [BMOV, Bis(maltolato)oxovanadium(IV)]
blood glucose reducing effect vs compounds of Comparative Examples 15 and 16 (diabetic rats): superior | plasma glucose level (diabetic rats; 0 h, individual rats (two per drug)): 23.02 mM and 23.01 mM | plasma glucose level (diabetic rats; 2 h, individual rats): 23.87 mM and 23.15 mM | plasma glucose level (diabetic rats; 4 h, individual rats): 22.27 mM and 23.32 mM | plasma glucose level (diabetic rats; 6 h, individual rats): 21.21 mM and 22.09 mM | plasma glucose level (diabetic rats; 8 h, individual rats): 20.26 mM and 19.45 mM | plasma glucose level (diabetic rats; 12 h, individual rats): 9.97 mM and 8.73 mM | plasma glucose level (diabetic rats; 24 h, individual rats): 0.8 mM and 1.0 mM | plasma glucose, difference BMOV vs ETHYLBMOV (STZ-diabetic rats): statistically insignificant | plasma insulin, difference BMOV vs ETHYLBMOV (STZ-diabetic rats): statistically insignificant | insulin vs control, in words (normal rats; control treated): significantly lower | fluid intake (normal rats; control treated, day 77 (control 62.7±7.4)): 33.6 ± 7.2 mL | Cholesterol (normal rats; control treated, pretreatment (day before treatment started), mean ± S.E.M.): 1.64 ± 0.08 mmol/L | Triglyceride (normal rats; control treated, pretreatment, mean ± S.E.M.): 1.21 ± 0.14 mmol/L | Cholesterol (normal rats; [1]): 1.60 ± 0.06 mmol/L | Triglyceride (normal rats; [1]): 2.04 ± 0.22 mmol/L | food intake (normal rats; control-treated (control 29±0.1)): 25.5±0.3 grams per day | weight gain (normal rats; control-treated, 77 days, drinking water (control 250 g)): 200 g | fluid consumption vs all other groups, in words (normal rats; control-treated, by day 63): significant difference | weight gain, in words (normal rats; control-treated, from day 56): significantly decreased weight gain | food consumption vs all other groups, in words (normal rats; control-treated, from day 63 on): significant difference
